Test results taken from the supplement of paper PMC10307832.

Key:
Experiment in all cases: relative viability (nuclei count vs DMSO), 5 days (fraction); higher = more cells survive
Crenolanib + Navitoclax = compound: CC1(COc2ccc3c(c2)ncn3-c2ccc3cccc(N4CCC(N)CC4)c3n2)COC1 [Crenolanib] + CC1(C)CCC(c2ccc(Cl)cc2)=C(CN2CCN(c3ccc(C(=O)NS(=O)(=O)c4ccc(N[C@H](CCN5CCOCC5)CSc5ccccc5)c(S(=O)(=O)C(F)(F)F)c4)cc3)CC2)C1 [Navitoclax] (partner 0.5 µM)
How it was run: (§1)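 For relative viability, nuclei counts in treated wells were divided by those in vehicle wells. Lung cancer cell lines had been pin-tool dosed in 1536-well plates the day after seeding and cultured for 5 days, then fixed and stained in one step (final 0.05% Triton X-100, 1% formaldehyde, 1 ug/ml Hoechst) and imaged at 4×. Doses were one drug alone or a fixed anchor-drug dose plus five library-drug doses (not always all listed) in √10 steps, and values are duplicate-plate medians.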

Crenolanib + Phenformin = compound: CC1(COc2ccc3c(c2)ncn3-c2ccc3cccc(N4CCC(N)CC4)c3n2)COC1 [Crenolanib] + N=C(N)NC(=N)NCCc1ccccc1 [Phenformin] (partner 250 µM)
How it was run: as §1

Tivantinib + Luminespib = compound: O=C1NC(=O)[C@@H](c2cn3c4c(cccc24)CCC3)[C@@H]1c1c[nH]c2ccccc12 [Tivantinib] + CCNC(=O)c1noc(-c2cc(C(C)C)c(O)cc2O)c1-c1ccc(CN2CCOCC2)cc1 [Luminespib] (partner 0.01 µM)
How it was run: as §1

Tivantinib + Alpelisib = compound: O=C1NC(=O)[C@@H](c2cn3c4c(cccc24)CCC3)[C@@H]1c1c[nH]c2ccccc12 [Tivantinib] + Cc1nc(NC(=O)N2CCC[C@H]2C(N)=O)sc1-c1ccnc(C(C)(C)C(F)(F)F)c1 [Alpelisib] (partner 2 µM)
How it was run: as §1

| Cell Line | relative viability (Crenolanib + Navitoclax; first compound 0.01 µM) | relative viability (Crenolanib + Navitoclax; first compound 0.1 µM) | relative viability (Crenolanib + Navitoclax; first compound 0.3162 µM) | relative viability (Crenolanib + Navitoclax; first compound 1 µM) | relative viability (Crenolanib + Phenformin; first compound 0.01 µM) | relative viability (Crenolanib + Phenformin; first compound 0.03162 µM) | relative viability (Crenolanib + Phenformin; first compound 0.1 µM) | relative viability (Crenolanib + Phenformin; first compound 0.3162 µM) | relative viability (Crenolanib + Phenformin; first compound 1 µM) | relative viability (Tivantinib + Luminespib; first compound 0.01 µM) | relative viability (Tivantinib + Luminespib; first compound 0.03162 µM) | relative viability (Tivantinib + Luminespib; first compound 0.1 µM) | relative viability (Tivantinib + Luminespib; first compound 0.3162 µM) | relative viability (Tivantinib + Alpelisib; first compound 0.01 µM) | relative viability (Tivantinib + Alpelisib; first compound 0.03162 µM) | relative viability (Tivantinib + Alpelisib; first compound 0.3162 µM) | relative viability (Crenolanib + Navitoclax; first compound 0.03162 µM) | relative viability (Tivantinib + Alpelisib; first compound 0.1 µM) |
| --- | --- | --- | --- | --- | --- | --- | --- | --- | --- | --- | --- | --- | --- | --- | --- | --- | --- | --- |
| NCI-H441 | 0.487 | 0.815 | 0.639 | 0.683 | 0.771 | 0.881 | 0.955 | 0.936 | 0.633 | 0.343 | 0.359 | 0.27 | 0.337 | 0.736 | 0.648 | 0.76 |  |  |
| NCI-H460 | 1.24 | 0.932 | 1.15 | 1.15 | 0.549 | 0.514 | 0.518 | 0.506 | 0.473 | 0.0321 | 0.0359 | 0.0227 | 0.0374 | 0.508 | 0.373 | 0.473 | 1.4 | 0.447 |
| NCI-H520 | 0.962 | 1.01 | 1.15 | 1.01 | 0.605 | 0.574 | 0.75 | 0.584 | 0.616 | 0.212 | 0.218 | 0.209 | 0.198 | 0.921 | 0.991 | 0.925 | 1.13 | 0.815 |
| NCI-H596 | 1.02 | 0.805 | 0.899 | 0.822 | 0.691 | 0.806 | 0.72 | 0.733 | 0.737 | 1.01 | 1.01 | 1.08 | 0.935 | 0.623 | 0.397 | 0.433 | 1.04 | 0.358 |
| NCI-H647 | 1.13 | 0.967 | 1.11 | 0.98 | 0.546 | 0.612 | 0.551 | 0.463 | 0.481 | 0.155 | 0.141 | 0.14 | 0.135 | 1.15 | 1.16 | 1.14 | 1.22 | 1.09 |
| NCI-H727 | 0.57 | 0.462 | 0.467 | 0.362 | 0.636 | 0.544 | 0.497 | 0.565 | 0.599 | 0.334 | 0.37 | 0.514 | 0.253 | 0.537 | 0.526 |  | 0.414 | 0.505 |
| NCI-H838 | 1.19 | 1.21 | 1.2 | 1.02 | 0.562 | 0.586 | 0.632 | 0.539 | 0.527 | 0.276 | 0.308 | 0.302 | 0.335 | 0.915 | 1.06 | 0.953 | 1.16 | 0.973 |
| NCI-H1355 | 1.08 | 0.999 | 1.22 | 0.825 | 0.506 | 0.463 | 0.445 | 0.406 | 0.381 | 0.787 | 0.687 | 0.726 | 0.723 | 0.852 | 0.839 | 0.751 | 0.897 | 0.877 |
| NCI-H1395 | 1.13 | 1.07 | 1.18 | 1.15 | 0.448 | 0.455 | 0.497 | 0.469 | 0.436 | 0.82 | 0.662 | 0.557 | 0.403 | 1.18 | 1.23 | 0.878 | 1.26 | 1 |
| NCI-H1437 | 1.1 | 1.15 | 1.18 | 1.11 | 0.33 | 0.316 | 0.301 | 0.31 | 0.29 | 1.13 | 1.15 | 1.1 | 1.06 | 0.969 | 0.934 | 0.971 | 1.11 | 0.898 |
| NCI-H1651 | 1.1 | 0.935 | 1.23 | 1.03 | 0.331 | 0.36 | 0.35 | 0.336 | 0.308 | 0.768 | 1.02 | 0.764 | 0.77 | 1.04 | 0.856 | 0.915 | 1.07 | 1.01 |
| NCI-H1666 | 1.07 | 0.872 | 1.19 | 0.971 | 0.56 | 0.57 | 0.565 | 0.557 | 0.541 | 0.963 | 1.05 | 0.944 | 0.939 | 0.902 | 0.904 | 0.608 | 0.998 | 0.948 |
| NCI-H1734 | 0.846 | 0.796 | 0.952 | 0.886 | 0.38 | 0.405 | 0.387 | 0.421 | 0.39 | 0.206 | 0.198 | 0.0957 | 0.191 | 0.677 | 0.597 | 0.681 | 0.778 | 0.64 |
| NCI-H1755 | 0.974 | 0.998 | 1.01 | 0.993 | 0.666 | 0.642 | 0.61 | 0.613 | 0.574 | 0.478 | 0.473 | 0.4 | 0.437 | 0.918 | 0.936 | 0.902 | 1.02 | 0.886 |
| NCI-H1792 | 0.656 | 0.579 | 0.673 | 0.642 | 0.185 | 0.351 | 0.244 | 0.282 | 0.317 | 0.479 | 0.323 | 0.338 | 0.391 | 0.804 | 0.633 | 0.415 | 0.408 | 0.699 |
| NCI-H1793 | 0.441 | 0.386 | 0.386 | 0.511 | 0.453 | 0.38 | 0.376 | 0.288 | 0.364 | 0.186 | 0.22 | 0.156 | 0.203 | 0.678 | 0.858 |  | 0.362 | 0.703 |
| NCI-H1915 | 0.792 | 0.786 | 0.828 | 0.831 | 0.359 | 0.37 | 0.365 | 0.386 | 0.398 | 0.883 | 0.775 | 0.722 | 0.765 | 1.07 | 1.01 | 1.04 | 0.769 | 1.09 |
| NCI-H1944 | 0.987 | 1.04 | 1.13 | 1.03 | 0.217 | 0.222 | 0.221 | 0.202 | 0.177 | 0.712 | 0.609 | 0.697 | 0.608 | 0.79 | 0.782 | 0.554 | 1.03 | 0.735 |
